Patent publication EP4603105A1, “PHARMACEUTICAL COMPOSITION CONTAINING CYCLIC COMPOUND HAVING SELECTIVE KRAS INHIBITORY EFFECT AGAINST HRAS AND NRAS” (CHUGAI SEIYAKU KABUSHIKI KAISHA, priority 2022, dated 2024)
*1 amine or outer side, *2 acyl side, *3 side chain or, on linkers, in order; H or OH if unused. Where a SMILES comes first, the peptide text is derived from it. Bridges are numbered along the chain shown (N, C = ends). [ ]: non-standard residue; d: D form. The star is where a group is joined. X25 = O=C([C@H](Cc1ccc(C(F)(F)F)cc1)N(CCC(F)(F)F)[*:1])[*:2]; X23 = O=C([C@H](Cc1ccc(C(F)(F)F)cc1)N(CC1CCCC1)[*:1])[*:2]; X38 = CC(C)CCN([C@@H](Cc1ccc(C(F)(F)F)cc1)C(=O)[*:2])[*:1]; hPhe(3-Cl-4-CF3) = N[C@@H](CCc1ccc(C(F)(F)F)c(Cl)c1)C(=O)O; X24 = CC(C)CN([C@@H](Cc1ccc(C(F)(F)F)cc1)C(=O)[*:2])[*:1]; X39 = O=C([C@H](Cc1ccc(C(F)(F)F)cc1)N(CC1CCC1)[*:1])[*:2]; X22 = C=CCCN([C@@H](Cc1ccc(C(F)(F)F)cc1)C(=O)[*:2])[*:1]; X33 = O=C([C@H](Cc1ccc(C(F)(F)F)cc1)N(CC1CC1)[*:1])[*:2]; X43 = COCCCN([C@@H](Cc1ccc(C(F)(F)F)cc1)C(=O)[*:2])[*:1]; X12 = C=CCN([C@@H](Cc1ccc(C(F)(F)F)cc1)C(=O)[*:2])[*:1]; X18 = CCCCN([C@@H](Cc1ccc(C(F)(F)F)cc1)C(=O)[*:2])[*:1]; X29 = C#CCN([C@@H](Cc1ccc(C(F)(F)F)cc1)C(=O)[*:2])[*:1]; X34 = COCCN([C@@H](Cc1ccc(C(F)(F)F)cc1)C(=O)[*:2])[*:1]; NMeGly(cPent) = CN[C@H](C(=O)O)C1CCCC1; NMeD = CN[C@@H](CC(=O)O)C(=O)O; NMeL = CN[C@@H](CC(C)C)C(=O)O; Morpholide = C1CN(*)CCO1; NMeA = CN[C@@H](C)C(=O)O; Ac5c = NC1(C(=O)O)CCCC1; Aze = O=C(O)[C@@H]1CCN1; Sar = CNCC(=O)O

Columns and labels:
[1] = biological target: GDP-bound NRAS wild-type protein (Homo sapiens, UniProt P01111); experiment: Binding to NRAS by surface plasmon resonance (SPR), KD and KD ratio to KRAS; details: ratio of KD for GDP-bound NRAS wild-type protein to KD for KRAS
How it was run: (§1)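 Affinity is measured by surface plasmon resonance at 30°C against captured, GDP-loaded RAS carrying a biotinylated Avi tag. Compounds are titrated by single-cycle kinetics, and KD comes from a 1:1 fit.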

HRAS wild-type protein = HRAS wild-type protein (Homo sapiens, UniProt P01112); experiment: Binding to HRAS by surface plasmon resonance (SPR), KD and KD ratio to KRAS; details: ratio of KD for HRAS wild-type protein to KD for KRAS
How it was run: as §1

[2] = system: human lung cancer strain NCI-H441; format: cell-based
How it was run: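 Readout: […] after the ATP-based reagent. Compound: serial dilutions in dimethyl sulfoxide.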

Chain of GDP-bound NRAS wild-type protein (P01111 whole entry): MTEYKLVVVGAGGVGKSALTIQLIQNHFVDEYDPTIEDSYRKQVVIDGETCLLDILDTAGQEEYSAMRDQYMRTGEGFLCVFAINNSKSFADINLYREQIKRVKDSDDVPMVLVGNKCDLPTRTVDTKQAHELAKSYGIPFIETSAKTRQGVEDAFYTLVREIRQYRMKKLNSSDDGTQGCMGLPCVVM
Chain of HRAS wild-type protein (P01112 whole entry): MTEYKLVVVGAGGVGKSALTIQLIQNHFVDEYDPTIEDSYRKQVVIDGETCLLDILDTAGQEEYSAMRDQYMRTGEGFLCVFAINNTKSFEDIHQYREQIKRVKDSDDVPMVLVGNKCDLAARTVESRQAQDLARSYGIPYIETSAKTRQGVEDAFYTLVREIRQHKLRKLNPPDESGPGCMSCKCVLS

| Compound | IC50 [2] [nM] | NRAS /KRAS [1] | HRAS /KRAS (HRAS wild-type protein) |
| --- | --- | --- | --- |
| C=CCN1C(=O)[C@@H]2CCN2C(=O)[C@H](C)N(C)C(=O)[C@H]([C@@H](C)CC)NC(=O)[C@H](CC(C)C)N(C)C(=O)C[C@@H](C(=O)N2CCOCC2)N(C)C(=O)[C@H](C2CCCC2)N(C)C(=O)C2(CCCC2)NC(=O)[C@@H]2CCCN2C(=O)[C@H](CCc2ccc(C(F)(F)F)c(Cl)c2)NC(=O)CN(C)C(=O)[C@@H]1Cc1ccc(C(F)(F)F)cc1 [PP0114] ([NMeL]I[NMeA][Aze][X12][Sar][hPhe(3-Cl-4-CF3)]P[Ac5c][NMeGly(cPent)][NMeD]-Morpholide; lactam N-11) | 6.1 | C (A compound having a KD ratio of 0.1 or more and less than 3 is denoted as C) | C (A compound having a KD ratio of 0.1 or more and less than 3 is denoted as C) |
| C=CCCN1C(=O)[C@@H]2CCN2C(=O)[C@H](C)N(C)C(=O)[C@H]([C@@H](C)CC)NC(=O)[C@H](CC(C)C)N(C)C(=O)C[C@@H](C(=O)N2CCOCC2)N(C)C(=O)[C@H](C2CCCC2)N(C)C(=O)C2(CCCC2)NC(=O)[C@@H]2CCCN2C(=O)[C@H](CCc2ccc(C(F)(F)F)c(Cl)c2)NC(=O)CN(C)C(=O)[C@@H]1Cc1ccc(C(F)(F)F)cc1 [PP0115] ([NMeL]I[NMeA][Aze][X22][Sar][hPhe(3-Cl-4-CF3)]P[Ac5c][NMeGly(cPent)][NMeD]-Morpholide; lactam N-11) | 2 | C (A compound having a KD ratio of 0.1 or more and less than 3 is denoted as C) | C (A compound having a KD ratio of 0.1 or more and less than 3 is denoted as C) |
| C#CCN1C(=O)[C@@H]2CCN2C(=O)[C@H](C)N(C)C(=O)[C@H]([C@@H](C)CC)NC(=O)[C@H](CC(C)C)N(C)C(=O)C[C@@H](C(=O)N2CCOCC2)N(C)C(=O)[C@H](C2CCCC2)N(C)C(=O)C2(CCCC2)NC(=O)[C@@H]2CCCN2C(=O)[C@H](CCc2ccc(C(F)(F)F)c(Cl)c2)NC(=O)CN(C)C(=O)[C@@H]1Cc1ccc(C(F)(F)F)cc1 [PP0116] ([NMeL]I[NMeA][Aze][X29][Sar][hPhe(3-Cl-4-CF3)]P[Ac5c][NMeGly(cPent)][NMeD]-Morpholide; lactam N-11) | 6.8 | C (A compound having a KD ratio of 0.1 or more and less than 3 is denoted as C) | C (A compound having a KD ratio of 0.1 or more and less than 3 is denoted as C) |
| CC[C@H](C)[C@@H]1NC(=O)[C@H](CC(C)C)N(C)C(=O)C[C@@H](C(=O)N2CCOCC2)N(C)C(=O)[C@H](C2CCCC2)N(C)C(=O)C2(CCCC2)NC(=O)[C@@H]2CCCN2C(=O)[C@H](CCc2ccc(C(F)(F)F)c(Cl)c2)NC(=O)CN(C)C(=O)[C@H](Cc2ccc(C(F)(F)F)cc2)N(CCC(F)(F)F)C(=O)[C@@H]2CCN2C(=O)[C@H](C)N(C)C1=O [PP0117] ([NMeL]I[NMeA][Aze][X25][Sar][hPhe(3-Cl-4-CF3)]P[Ac5c][NMeGly(cPent)][NMeD]-Morpholide; lactam N-11) | 9.2 | B (a compound having 3 or more and less than 10 is denoted as B) | B (a compound having 3 or more and less than 10 is denoted as B) |
| CC[C@H](C)[C@@H]1NC(=O)[C@H](CC(C)C)N(C)C(=O)C[C@@H](C(=O)N2CCOCC2)N(C)C(=O)[C@H](C2CCCC2)N(C)C(=O)C2(CCCC2)NC(=O)[C@@H]2CCCN2C(=O)[C@H](CCc2ccc(C(F)(F)F)c(Cl)c2)NC(=O)CN(C)C(=O)[C@H](Cc2ccc(C(F)(F)F)cc2)N(CCOC)C(=O)[C@@H]2CCN2C(=O)[C@H](C)N(C)C1=O [PP0118] ([NMeL]I[NMeA][Aze][X34][Sar][hPhe(3-Cl-4-CF3)]P[Ac5c][NMeGly(cPent)][NMeD]-Morpholide; lactam N-11) | 6 | C (A compound having a KD ratio of 0.1 or more and less than 3 is denoted as C) | C (A compound having a KD ratio of 0.1 or more and less than 3 is denoted as C) |

More lines, main results first:

| IC50 [2] [nM] | Compound | NRAS /KRAS [1] | HRAS /KRAS (HRAS wild-type protein) |
| --- | --- | --- | --- |
| 1.6 | CC[C@H](C)[C@@H]1NC(=O)[C@H](CC(C)C)N(C)C(=O)C[C@@H](C(=O)N2CCOCC2)N(C)C(=O)[C@H](C2CCCC2)N(C)C(=O)C2(CCCC2)NC(=O)[C@@H]2CCCN2C(=O)[C@H](CCc2ccc(C(F)(F)F)c(Cl)c2)NC(=O)CN(C)C(=O)[C@H](Cc2ccc(C(F)(F)F)cc2)N(CCCOC)C(=O)[C@@H]2CCN2C(=O)[C@H](C)N(C)C1=O [PP0119] ([NMeL]I[NMeA][Aze][X43][Sar][hPhe(3-Cl-4-CF3)]P[Ac5c][NMeGly(cPent)][NMeD]-Morpholide; lactam N-11) | C (A compound having a KD ratio of 0.1 or more and less than 3 is denoted as C) | C (A compound having a KD ratio of 0.1 or more and less than 3 is denoted as C) |
| 5.6 | CCCCN1C(=O)CN(C)C(=O)CN(C)C(=O)[C@H]([C@@H](C)CC)NC(=O)[C@H](CC(C)C)N(C)C(=O)C[C@@H](C(=O)N2CCOCC2)N(C)C(=O)[C@H](C2CCCC2)N(C)C(=O)C2(CCCC2)NC(=O)[C@@H]2CCCN2C(=O)[C@H](CCc2ccc(C(F)(F)F)c(Cl)c2)NC(=O)CN(C)C(=O)[C@@H]1Cc1ccc(C(F)(F)F)cc1 [PP0120] ([NMeL]I[Sar][Sar][X18][Sar][hPhe(3-Cl-4-CF3)]P[Ac5c][NMeGly(cPent)][NMeD]-Morpholide; lactam N-11) | B (a compound having 3 or more and less than 10 is denoted as B) | C (A compound having a KD ratio of 0.1 or more and less than 3 is denoted as C) |
| 29.5 | CC[C@H](C)[C@@H]1NC(=O)[C@H](CC(C)C)N(C)C(=O)C[C@@H](C(=O)N2CCOCC2)N(C)C(=O)[C@H](C2CCCC2)N(C)C(=O)C2(CCCC2)NC(=O)[C@@H]2CCCN2C(=O)[C@H](CCc2ccc(C(F)(F)F)c(Cl)c2)NC(=O)CN(C)C(=O)[C@H](Cc2ccc(C(F)(F)F)cc2)N(CC(C)C)C(=O)CN(C)C(=O)CN(C)C1=O [PP0121] ([NMeL]I[Sar][Sar][X24][Sar][hPhe(3-Cl-4-CF3)]P[Ac5c][NMeGly(cPent)][NMeD]-Morpholide; lactam N-11) | C (A compound having a KD ratio of 0.1 or more and less than 3 is denoted as C) | C (A compound having a KD ratio of 0.1 or more and less than 3 is denoted as C) |
| 12 | CC[C@H](C)[C@@H]1NC(=O)[C@H](CC(C)C)N(C)C(=O)C[C@@H](C(=O)N2CCOCC2)N(C)C(=O)[C@H](C2CCCC2)N(C)C(=O)C2(CCCC2)NC(=O)[C@@H]2CCCN2C(=O)[C@H](CCc2ccc(C(F)(F)F)c(Cl)c2)NC(=O)CN(C)C(=O)[C@H](Cc2ccc(C(F)(F)F)cc2)N(CC2CC2)C(=O)CN(C)C(=O)CN(C)C1=O [PP0122] ([NMeL]I[Sar][Sar][X33][Sar][hPhe(3-Cl-4-CF3)]P[Ac5c][NMeGly(cPent)][NMeD]-Morpholide; lactam N-11) | C (A compound having a KD ratio of 0.1 or more and less than 3 is denoted as C) | C (A compound having a KD ratio of 0.1 or more and less than 3 is denoted as C) |
| 12.5 | CC[C@H](C)[C@@H]1NC(=O)[C@H](CC(C)C)N(C)C(=O)C[C@@H](C(=O)N2CCOCC2)N(C)C(=O)[C@H](C2CCCC2)N(C)C(=O)C2(CCCC2)NC(=O)[C@@H]2CCCN2C(=O)[C@H](CCc2ccc(C(F)(F)F)c(Cl)c2)NC(=O)CN(C)C(=O)[C@H](Cc2ccc(C(F)(F)F)cc2)N(CC2CCC2)C(=O)CN(C)C(=O)CN(C)C1=O [PP0123] ([NMeL]I[Sar][Sar][X39][Sar][hPhe(3-Cl-4-CF3)]P[Ac5c][NMeGly(cPent)][NMeD]-Morpholide; lactam N-11) | B (a compound having 3 or more and less than 10 is denoted as B) | C (A compound having a KD ratio of 0.1 or more and less than 3 is denoted as C) |
| 48.8 | CC[C@H](C)[C@@H]1NC(=O)[C@H](CC(C)C)N(C)C(=O)C[C@@H](C(=O)N2CCOCC2)N(C)C(=O)[C@H](C2CCCC2)N(C)C(=O)C2(CCCC2)NC(=O)[C@@H]2CCCN2C(=O)[C@H](CCc2ccc(C(F)(F)F)c(Cl)c2)NC(=O)CN(C)C(=O)[C@H](Cc2ccc(C(F)(F)F)cc2)N(CC2CCCC2)C(=O)CN(C)C(=O)CN(C)C1=O [PP0124] ([NMeL]I[Sar][Sar][X23][Sar][hPhe(3-Cl-4-CF3)]P[Ac5c][NMeGly(cPent)][NMeD]-Morpholide; lactam N-11) | C (A compound having a KD ratio of 0.1 or more and less than 3 is denoted as C) | C (A compound having a KD ratio of 0.1 or more and less than 3 is denoted as C) |
| 9.3 | CC[C@H](C)[C@@H]1NC(=O)[C@H](CC(C)C)N(C)C(=O)C[C@@H](C(=O)N2CCOCC2)N(C)C(=O)[C@H](C2CCCC2)N(C)C(=O)C2(CCCC2)NC(=O)[C@@H]2CCCN2C(=O)[C@H](CCc2ccc(C(F)(F)F)c(Cl)c2)NC(=O)CN(C)C(=O)[C@H](Cc2ccc(C(F)(F)F)cc2)N(CCC(C)C)C(=O)CN(C)C(=O)CN(C)C1=O [PP0126] ([NMeL]I[Sar][Sar][X38][Sar][hPhe(3-Cl-4-CF3)]P[Ac5c][NMeGly(cPent)][NMeD]-Morpholide; lactam N-11) | C (A compound having a KD ratio of 0.1 or more and less than 3 is denoted as C) | C (A compound having a KD ratio of 0.1 or more and less than 3 is denoted as C) |
| 8.8 | C=CCCN1C(=O)CN(C)C(=O)CN(C)C(=O)[C@H]([C@@H](C)CC)NC(=O)[C@H](CC(C)C)N(C)C(=O)C[C@@H](C(=O)N2CCOCC2)N(C)C(=O)[C@H](C2CCCC2)N(C)C(=O)C2(CCCC2)NC(=O)[C@@H]2CCCN2C(=O)[C@H](CCc2ccc(C(F)(F)F)c(Cl)c2)NC(=O)CN(C)C(=O)[C@@H]1Cc1ccc(C(F)(F)F)cc1 [PP0129] ([NMeL]I[Sar][Sar][X22][Sar][hPhe(3-Cl-4-CF3)]P[Ac5c][NMeGly(cPent)][NMeD]-Morpholide; lactam N-11) | B (a compound having 3 or more and less than 10 is denoted as B) | C (A compound having a KD ratio of 0.1 or more and less than 3 is denoted as C) |
